# Measured values: ChEMBL document CHEMBL1201862, “PubChem BioAssay data set” (2004)
# Active and inactive are the calls of the source.
# Columns and labels:
# [1] = target: Luciferin 4-monooxygenase (Photinus pyralis, UniProt P08659); experiment: inhibition of purified Photinus pyralis luciferase – biochemical, luminescence, dose response (AID 1891)
# [2] = Luminescence Cell-Based Dose Confirmation HTS to Identify Inhibitors of Platelet Dense Granule Release. [Related pubchem assays: 1663 (Primary HTS), 1678 (Summary of Project)]; assay type: functional
# Genome polyprotein = Genome polyprotein (dengue virus type 2, UniProt P29990); experiment: flavivirus cap methylation enzyme inhibition – biochemical, confirmation dose response, primary screen (AID 588689); assay type: functional
# Genome polyprotein, sequence (P29990 2492-3391 limits assumed): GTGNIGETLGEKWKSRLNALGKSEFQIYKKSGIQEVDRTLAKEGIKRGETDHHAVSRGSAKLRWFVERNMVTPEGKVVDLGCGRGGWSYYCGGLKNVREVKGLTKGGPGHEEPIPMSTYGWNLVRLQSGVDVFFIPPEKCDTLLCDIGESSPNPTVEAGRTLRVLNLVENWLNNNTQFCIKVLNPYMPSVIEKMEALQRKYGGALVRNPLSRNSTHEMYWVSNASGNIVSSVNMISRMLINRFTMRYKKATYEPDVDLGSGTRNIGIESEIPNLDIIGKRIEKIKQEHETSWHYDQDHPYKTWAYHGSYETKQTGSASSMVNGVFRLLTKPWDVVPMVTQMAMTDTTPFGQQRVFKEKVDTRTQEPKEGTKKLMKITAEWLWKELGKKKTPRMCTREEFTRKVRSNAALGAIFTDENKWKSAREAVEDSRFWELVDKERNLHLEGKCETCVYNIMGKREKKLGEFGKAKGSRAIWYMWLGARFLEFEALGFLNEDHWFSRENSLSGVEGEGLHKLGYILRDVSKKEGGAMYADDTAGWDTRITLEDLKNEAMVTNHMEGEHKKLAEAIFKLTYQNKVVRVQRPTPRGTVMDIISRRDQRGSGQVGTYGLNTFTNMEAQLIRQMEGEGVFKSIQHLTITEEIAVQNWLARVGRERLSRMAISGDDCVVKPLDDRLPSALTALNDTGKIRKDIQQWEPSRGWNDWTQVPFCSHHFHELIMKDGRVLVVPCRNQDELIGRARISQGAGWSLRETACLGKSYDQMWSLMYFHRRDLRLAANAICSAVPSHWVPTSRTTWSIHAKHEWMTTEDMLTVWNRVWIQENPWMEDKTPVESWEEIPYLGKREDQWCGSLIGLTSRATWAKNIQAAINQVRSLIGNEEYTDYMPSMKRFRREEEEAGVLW
# [3] = target: Heat shock protein HSP 90-alpha (Homo sapiens, UniProt P07900); assay type: functional, organism-based
# [4] = target: T1, Calpain-2 catalytic subunit (Sus scrofa, UniProt P43367); experiment: m-calpain protease blockers, concentration series – biochemical, fluorogenic peptide substrate, dose response (AID 1420); assay type: functional
# T1 sequence (P43367 whole entry): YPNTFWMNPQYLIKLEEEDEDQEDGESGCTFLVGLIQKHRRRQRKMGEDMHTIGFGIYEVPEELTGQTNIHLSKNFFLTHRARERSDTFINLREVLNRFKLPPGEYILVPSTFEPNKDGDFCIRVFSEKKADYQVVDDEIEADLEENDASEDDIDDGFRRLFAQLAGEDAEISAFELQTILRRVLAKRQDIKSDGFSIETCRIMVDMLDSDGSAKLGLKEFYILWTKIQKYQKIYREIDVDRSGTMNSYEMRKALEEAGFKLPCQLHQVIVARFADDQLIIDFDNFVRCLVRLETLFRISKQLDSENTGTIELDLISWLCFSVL
# [5] = target: T2, High affinity choline transporter 1 (Homo sapiens, UniProt Q9GZV3); experiment: human choline transporter blockers, potency – cell-based, 5-point CRC, membrane potential dye, dose response (AID 504840); assay type: functional
# T2 sequence (Q9GZV3 whole entry): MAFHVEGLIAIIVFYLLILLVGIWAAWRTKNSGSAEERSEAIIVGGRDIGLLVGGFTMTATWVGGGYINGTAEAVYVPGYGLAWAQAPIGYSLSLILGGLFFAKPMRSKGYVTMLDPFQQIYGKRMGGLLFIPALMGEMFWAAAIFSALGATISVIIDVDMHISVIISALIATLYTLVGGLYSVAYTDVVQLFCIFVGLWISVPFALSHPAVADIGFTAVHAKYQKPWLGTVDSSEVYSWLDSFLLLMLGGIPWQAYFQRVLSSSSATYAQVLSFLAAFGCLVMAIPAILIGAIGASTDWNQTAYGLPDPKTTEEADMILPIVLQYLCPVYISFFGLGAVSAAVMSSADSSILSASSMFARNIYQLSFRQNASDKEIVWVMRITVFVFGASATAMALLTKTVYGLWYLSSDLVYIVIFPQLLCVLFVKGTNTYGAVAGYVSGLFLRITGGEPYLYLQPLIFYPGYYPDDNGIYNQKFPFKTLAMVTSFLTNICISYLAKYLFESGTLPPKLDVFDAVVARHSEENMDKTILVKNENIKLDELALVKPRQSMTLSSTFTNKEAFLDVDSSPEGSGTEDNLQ
# [6] = viability of PTEN-deleted HCT116 cells – cell-based, HCT116 PTEN knockout, dose response (AID 1047); assay type: functional;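 further: HCT116 colon tumor cells with PTEN knocked out; cells exposed to compound for 60 hours before readout; potency for loss of cell viability measured by luminescence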
# [7] = viability of HCT116 lacking mutant beta-catenin – cell-based, human colon tumor, dose response (AID 1045); assay type: functional;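 further: HCT116 colon tumor cells with beta catenin knocked out; cells exposed to compound for 60 hours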
# [8] = target: Glyceraldehyde-3-phosphate dehydrogenase (Homo sapiens, UniProt P04406)
# Glyceraldehyde-3-phosphate dehydrogenase, sequence (P04406 whole entry): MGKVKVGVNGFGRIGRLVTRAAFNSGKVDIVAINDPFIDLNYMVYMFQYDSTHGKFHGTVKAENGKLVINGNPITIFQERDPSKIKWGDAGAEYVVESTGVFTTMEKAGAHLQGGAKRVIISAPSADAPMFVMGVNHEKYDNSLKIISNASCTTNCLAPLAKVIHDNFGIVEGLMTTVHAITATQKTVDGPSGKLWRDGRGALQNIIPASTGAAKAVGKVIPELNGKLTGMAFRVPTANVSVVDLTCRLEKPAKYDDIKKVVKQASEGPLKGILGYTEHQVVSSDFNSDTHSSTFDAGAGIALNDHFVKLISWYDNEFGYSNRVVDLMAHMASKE
# Protein skinhead-1 = target: T3, Protein skinhead-1 (Caenorhabditis elegans, UniProt P34707); assay type: functional
# T3 sequence (P34707 whole entry): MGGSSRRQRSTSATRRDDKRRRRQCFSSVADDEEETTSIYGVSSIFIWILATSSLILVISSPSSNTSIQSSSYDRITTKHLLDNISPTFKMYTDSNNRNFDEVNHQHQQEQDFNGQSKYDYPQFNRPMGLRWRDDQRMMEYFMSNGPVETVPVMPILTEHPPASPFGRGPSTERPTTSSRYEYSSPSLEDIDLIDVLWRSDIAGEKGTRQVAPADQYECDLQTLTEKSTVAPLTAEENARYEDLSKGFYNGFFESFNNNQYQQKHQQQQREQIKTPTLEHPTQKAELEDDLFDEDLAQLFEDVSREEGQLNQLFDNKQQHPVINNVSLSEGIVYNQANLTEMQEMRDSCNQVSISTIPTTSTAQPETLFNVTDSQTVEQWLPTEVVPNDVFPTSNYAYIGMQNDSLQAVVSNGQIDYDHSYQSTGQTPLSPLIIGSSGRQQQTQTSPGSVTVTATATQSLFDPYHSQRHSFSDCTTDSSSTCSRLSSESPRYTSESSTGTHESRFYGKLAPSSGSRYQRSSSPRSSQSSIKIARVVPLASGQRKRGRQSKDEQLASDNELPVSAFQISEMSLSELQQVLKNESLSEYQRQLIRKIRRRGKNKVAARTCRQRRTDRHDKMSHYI
# Cytochrome P450 2C19 = Cytochrome P450 2C19 (Homo sapiens, UniProt P33261); experiment: Cytochrome panel assay with activity outcomes. Panel member name: p450-cyp2c19 Compounds with AC50 equal or less than 10 uM are considered active; assay type: functional
# Cytochrome P450 2C19, sequence (P33261 whole entry): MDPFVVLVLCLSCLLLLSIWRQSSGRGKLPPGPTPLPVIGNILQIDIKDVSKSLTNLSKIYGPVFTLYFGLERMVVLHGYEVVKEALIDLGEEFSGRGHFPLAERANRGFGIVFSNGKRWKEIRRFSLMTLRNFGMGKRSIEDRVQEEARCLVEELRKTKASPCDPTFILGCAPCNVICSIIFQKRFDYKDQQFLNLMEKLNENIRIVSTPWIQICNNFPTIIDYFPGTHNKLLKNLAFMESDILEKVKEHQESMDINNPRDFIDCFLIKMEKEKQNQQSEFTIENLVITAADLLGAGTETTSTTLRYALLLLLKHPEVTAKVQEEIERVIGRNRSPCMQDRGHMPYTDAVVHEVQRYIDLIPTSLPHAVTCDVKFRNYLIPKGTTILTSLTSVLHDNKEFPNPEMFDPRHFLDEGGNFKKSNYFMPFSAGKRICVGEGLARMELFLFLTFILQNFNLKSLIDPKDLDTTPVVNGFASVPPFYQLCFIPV
# Cytochrome P450 3A4 = Cytochrome P450 3A4 (Homo sapiens, UniProt P08684);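 further: CYP3A4 tested as one member of a cytochrome P450 panel screen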
# Cytochrome P450 3A4, sequence (P08684 whole entry): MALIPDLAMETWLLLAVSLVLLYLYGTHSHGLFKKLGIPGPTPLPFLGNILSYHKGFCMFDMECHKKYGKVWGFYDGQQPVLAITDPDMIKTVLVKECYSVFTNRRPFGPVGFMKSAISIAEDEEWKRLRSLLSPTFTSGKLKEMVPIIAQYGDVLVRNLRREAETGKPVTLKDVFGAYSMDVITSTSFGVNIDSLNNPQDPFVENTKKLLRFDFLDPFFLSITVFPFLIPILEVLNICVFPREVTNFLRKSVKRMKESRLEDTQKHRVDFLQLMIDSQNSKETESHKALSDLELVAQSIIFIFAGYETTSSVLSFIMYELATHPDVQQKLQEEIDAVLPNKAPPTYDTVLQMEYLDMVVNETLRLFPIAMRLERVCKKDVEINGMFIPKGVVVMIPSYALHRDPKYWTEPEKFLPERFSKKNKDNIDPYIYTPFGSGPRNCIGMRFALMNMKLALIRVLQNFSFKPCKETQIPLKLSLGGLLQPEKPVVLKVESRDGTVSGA
# [9] = system: Streptococcus sp. 'group A'; experiment: Streptococcus pyogenes SK(-)GAS viability under kanamycin – luminescence, BacTiterGlo, confirmation, counter-screen for streptokinase expression inhibitor project, dose response (AID 1900); assay type: functional, organism-based
# Streptokinase A = target: T4, Streptokinase A (Streptococcus pyogenes serotype M1, UniProt P10520); experiment: viability-normalized secreted streptokinase activity reduction – plasminogen activation absorbance, OD405, dose response (AID 1914); assay type: functional, Streptococcus pyogenes M1 GAS;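 further: secreted streptokinase activity via plasminogen activation per viability signal from cell pellet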
# T4 sequence (P10520 whole entry): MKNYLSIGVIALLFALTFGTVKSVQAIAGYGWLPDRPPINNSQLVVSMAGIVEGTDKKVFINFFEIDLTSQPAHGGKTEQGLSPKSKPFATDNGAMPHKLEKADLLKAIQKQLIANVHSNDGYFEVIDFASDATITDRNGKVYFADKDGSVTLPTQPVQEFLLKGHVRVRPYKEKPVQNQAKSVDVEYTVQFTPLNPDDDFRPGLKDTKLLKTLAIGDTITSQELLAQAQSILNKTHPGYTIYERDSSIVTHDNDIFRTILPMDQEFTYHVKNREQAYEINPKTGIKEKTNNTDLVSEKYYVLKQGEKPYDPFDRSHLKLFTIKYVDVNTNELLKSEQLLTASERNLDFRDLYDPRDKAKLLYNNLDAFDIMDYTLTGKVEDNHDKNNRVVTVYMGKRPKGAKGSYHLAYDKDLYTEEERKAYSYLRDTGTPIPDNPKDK
# [10] = Trypanosoma cruzi growth suppression in host cells – NIH3T3 host cells, beta-gal luminescence, confirmation (AID 2044); assay type: functional, cell-based;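 further: intracellular parasites grown in NIH/3T3 mouse fibroblasts as host cells; luminescent beta-galactosidase reporter signal from transgenic T. cruzi replicating inside host cells; inhibitors lower the luminescence signal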
# [11] = NIH3T3 cell viability loss – ATP luminescence, mouse fibroblasts, counter-screen, dose response (AID 2010); assay type: functional, cell-based;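 further: cells exposed to compound for about 90 hours before reading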
# Streptococcus = experiment: GAS UMAA2166 growth inhibition – luminescence, BacTiterGlo, counter-screen for streptokinase expression inhibitor project, dose response (AID 1915); assay type: functional, organism-based;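 further: potency for reduction of bacterial viability or growth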
# Nonstructural protein 1 = Nonstructural protein 1 (Influenza A virus, UniProt Q194T2); assay type: functional, Influenza A virus (A/California/07/2009(H1N1))
# Nonstructural protein 1, sequence (Q194T2 whole entry): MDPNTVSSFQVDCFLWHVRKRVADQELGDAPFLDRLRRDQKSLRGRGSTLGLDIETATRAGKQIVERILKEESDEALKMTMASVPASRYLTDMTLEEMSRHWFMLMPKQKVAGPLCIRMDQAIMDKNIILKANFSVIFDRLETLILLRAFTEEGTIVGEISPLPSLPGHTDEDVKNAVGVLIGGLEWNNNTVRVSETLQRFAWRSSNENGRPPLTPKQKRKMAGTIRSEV
# [12] = target: DNA dC->dU-editing enzyme APOBEC-3G (Homo sapiens, UniProt Q9HC16); experiment: Dose Response confirmation of small molecule APOBEC3G DNA Deaminase Inhibitors via a fluorescence-based single-stranded DNA deaminase assay. [Related pubchem assays (depositor defined):AID493012, AID493028]; assay type: functional
# DNA dC->dU-editing enzyme APOBEC-3G, sequence (Q9HC16 whole entry): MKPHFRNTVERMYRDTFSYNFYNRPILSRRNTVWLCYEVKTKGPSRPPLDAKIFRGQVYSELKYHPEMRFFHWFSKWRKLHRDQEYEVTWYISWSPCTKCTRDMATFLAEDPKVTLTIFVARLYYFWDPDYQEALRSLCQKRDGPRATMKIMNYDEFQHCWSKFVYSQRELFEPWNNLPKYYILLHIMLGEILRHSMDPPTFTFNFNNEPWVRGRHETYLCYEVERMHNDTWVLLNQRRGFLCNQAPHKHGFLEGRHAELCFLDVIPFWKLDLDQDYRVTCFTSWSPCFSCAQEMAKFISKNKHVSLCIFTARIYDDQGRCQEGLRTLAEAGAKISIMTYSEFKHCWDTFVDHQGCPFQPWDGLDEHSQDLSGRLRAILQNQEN
# [13] = THP-1 cell cytotoxicity, dose response, cytotoxicity control for non-replicating M. tuberculosis project (AID 489025); assay type: functional
# cells = assay type: functional
# [14] = target: T5, DNA repair protein RAD52 homolog (Homo sapiens, UniProt P43351); assay type: functional, biochemical
# T5 sequence (P43351 whole entry): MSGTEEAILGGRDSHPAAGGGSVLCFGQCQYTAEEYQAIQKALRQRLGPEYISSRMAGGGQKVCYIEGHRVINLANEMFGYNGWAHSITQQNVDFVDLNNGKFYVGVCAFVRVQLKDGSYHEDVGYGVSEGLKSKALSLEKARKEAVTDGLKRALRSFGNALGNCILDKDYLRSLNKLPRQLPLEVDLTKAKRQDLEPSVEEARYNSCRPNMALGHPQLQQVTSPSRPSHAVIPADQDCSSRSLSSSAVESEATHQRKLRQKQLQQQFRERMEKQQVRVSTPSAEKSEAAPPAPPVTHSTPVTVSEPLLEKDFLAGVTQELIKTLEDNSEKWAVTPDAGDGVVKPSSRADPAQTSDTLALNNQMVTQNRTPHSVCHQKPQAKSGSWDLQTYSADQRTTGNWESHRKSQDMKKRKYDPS
# P388/ADR = experiment: cells; assay type: functional; conditions: Mus musculus
# SN12K1 = experiment: cells; assay type: functional; conditions: Homo sapiens
# P388 = experiment: cells; assay type: functional; conditions: Mus musculus
# Luciferin 4-monooxygenase, sequence (P08659 whole entry): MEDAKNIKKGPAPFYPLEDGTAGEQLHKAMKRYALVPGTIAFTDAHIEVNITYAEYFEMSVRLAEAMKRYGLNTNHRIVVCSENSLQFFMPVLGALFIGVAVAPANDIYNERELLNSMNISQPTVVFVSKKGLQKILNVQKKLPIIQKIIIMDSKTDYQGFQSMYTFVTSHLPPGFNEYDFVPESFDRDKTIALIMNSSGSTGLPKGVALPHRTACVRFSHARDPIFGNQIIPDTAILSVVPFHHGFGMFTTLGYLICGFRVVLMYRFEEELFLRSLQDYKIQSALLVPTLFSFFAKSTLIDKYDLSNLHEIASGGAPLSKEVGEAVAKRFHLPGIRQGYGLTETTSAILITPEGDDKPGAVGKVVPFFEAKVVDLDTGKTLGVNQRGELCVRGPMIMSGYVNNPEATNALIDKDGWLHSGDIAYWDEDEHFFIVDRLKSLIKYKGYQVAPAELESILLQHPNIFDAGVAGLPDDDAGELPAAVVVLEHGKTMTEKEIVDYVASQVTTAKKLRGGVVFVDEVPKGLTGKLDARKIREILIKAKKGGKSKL
structure (smiles),measurement,setting,value
CCn1ccc(C(=O)Nc2c(C)nn(Cc3c(F)c(F)c(F)c(F)c3F)c2C)n1,EC50,[1],> 112 µM (not active)
same,EC50,[2],> 112 µM (not active)
O=C(O)c1cccc(NS(=O)(=O)c2ccc(-c3ccc(S(=O)(=O)Nc4cccc(C(=O)O)c4)cc3)cc2)c1,IC50,Genome polyprotein,49.5 µM (active)
O=C(c1ccc(-c2ccccc2)cc1)C1CCCN(C(=O)c2cncs2)C1 (configuration not stated),AC50,[3],4.29 µM (active)
CCC(=O)N1CCc2cc(S(=O)(=O)N3CCc4ccccc4C3)ccc21,IC50,[4],< 0.4 µM (not active)
COc1ccc(-n2c(C)cc(C(=O)CSc3nnc(-c4ccoc4C)n3C)c2C)cc1,IC50,[5],13.8 µM (active)
COc1ccc2nc(Nc3nc4ccc(NC(C)=O)cc4s3)sc2c1,EC50,[6],16.9 µM (active)
same,EC50,[7],14 µM (active)
CN1C(=O)NC(=O)/C(=C/c2ccc(C(=O)O)cc2)C1=O,IC50,Genome polyprotein,85.1 µM (active)
O=C(O)C1Nc2ccccc2S(=O)(=O)N1 (configuration not stated),IC50,[8],> 100 µM (not active)
COc1ccc(-n2cc(-c3ccccc3)c3c(N4CCN(CCO)CC4)ncnc32)cc1,EC50,[6],32.8 µM (active)
same,EC50,[7],30.3 µM (active)
O=C(/C=C/Nc1ccc(Oc2ccccc2)cc1)c1ccco1,EC50,[1],0.617 µM (active)
same,EC50,[2],1.64 µM (active)
same,IC50,Protein skinhead-1,> 100 µM (inactive)
COc1ccc(N(C(=O)Cn2nnc(-c3ccccc3F)n2)C(C(=O)NCC2CCCO2)c2ccc(Cl)cc2)cc1 (configuration not stated),IC50,[4],> 50 µM (not active)
CC(C)C[C@H](NC(=O)[C@@H]1O[C@H]1C(=O)O)C(=O)NCCCCN=C(N)N,IC50,[4],> 50 µM (not active)
same,AC50,Cytochrome P450 2C19,inconclusive
same,AC50,Cytochrome P450 3A4,158 nM (inconclusive)
O=C(Nc1cccc(-c2nnc(-c3ccco3)o2)c1)c1ccccc1,IC50,[4],2.37 µM (not active)
CCOc1cc2c(cc1C(C)(C)C)NC(=O)CS2,EC50,[1],> 112 µM (not active)
same,EC50,[2],> 112 µM (not active)
Cn1cccc1C(=O)Nc1nc(-c2ccccn2)cs1,EC50,[9],18.4 µM (active)
same,EC50,Streptokinase A,> 150 µM (not active)
same,EC50,[10],2.28 µM (active)
same,EC50,[11],4.47 µM (active)
same,EC50,Streptococcus,58.3 µM (active)
same,IC50,Nonstructural protein 1,11 µM (active)
Cc1noc(C)c1CSc1nnc2scc(-c3ccc(Cl)cc3)n12,EC50,[1],> 112 µM (not active)
same,EC50,[2],> 112 µM (not active)
Fc1ccccc1Nc1nc2ccccc2o1,EC50,[1],0.83 µM (active)
same,EC50,[2],4.57 µM (active)
COc1ccc2oc(/C=C/N(C)C)c(C(=O)c3ccc(Cl)cc3)c2c1,AC50,[3],3.8 µM (active)
CCOC(=O)C1CCN(Cc2c(O)oc3ccccc3c2=O)CC1,IC50,[5],6.91 µM (active)
Cn1c(-c2cc(Br)ccc2O)n[nH]c1=S,EC50,Streptokinase A,> 150 µM (not active)
same,IC50,[12],8.33 µM (active)
CCCCn1c(SCn2nnc3ccccc3c2=O)nc2cc(S(N)(=O)=O)ccc21,IC50,[5],15.8 µM (active)
O=C(CN1CCCCC1)N1CCCc2c1c(=O)oc1ccc(OCc3ccccc3)cc21,EC50,[6],39.9 µM (active)
same,EC50,[7],48.4 µM (active)
CN(C)CC/C=C1/c2ccc(F)cc2Sc2ccc(Cl)cc21,CC50,[13],18.9 µM (active)
same,IC50,cells,18.6 µM (active)
same,AC50,[14],12.8 µM (active)
c1ccc(-c2cnnc(-c3ccccn3)n2)cc1,IC50,Nonstructural protein 1,12.9 µM (active)
O=S(=O)(c1ccc(Br)cc1)c1nc(-c2ccccc2)oc1NCCN1CCOCC1,IC50,Nonstructural protein 1,> 100 µM (active)
COc1ccc2c(c1)OCCc1cn[nH]c1-2,GI50,P388/ADR,34 µM (inactive)
same,GI50,SN12K1,38.2 µM (inactive)
same,GI50,P388,32.5 µM (inactive)
COC(=O)/C=c1/sc2nc3ccccc3n2c1=O,IC50,[12],30.8 µM (active)
C/C(=C/C(=O)Nc1ccccc1)Nc1onc(C)c1C,GI50,SN12K1,> 100 µM (inactive)
same,GI50,P388,> 100 µM (inactive)
COc1ccc(/C(Cl)=C(\C=O)c2ccc(OC)c(OC)c2)cc1OC,GI50,P388/ADR,10.5 µM (inactive)
same,GI50,SN12K1,80.9 µM (inactive)
same,GI50,P388,35.3 µM (inactive)
CSc1nc2c(ncn2C2OC(CO)C(O)C(O)C2O)c(=O)[nH]1 (configuration not stated),GI50,P388/ADR,> 10 µM (inactive)
same,GI50,SN12K1,> 100 µM (inactive)
same,GI50,P388,> 100 µM (inactive)
COc1cccc(/C=N/Nc2ccc(S(=O)(=O)O)cc2)c1O,EC50,[1],3.91 µM (active)
same,EC50,[2],3.13 µM (active)
Cc1cc(C(=O)N/N=C/c2ccc(OCc3ccccc3)cc2)c(C)o1,IC50,[4],< 0.4 µM (not active)
C=CCOc1ccccc1/C=c1\sc2nc(=O)c(C)nn2c1=O,IC50,Genome polyprotein,12.1 µM (active)
COc1ccc(CO/N=C/c2c(C)nc(O)nc2O)cc1,EC50,[1],> 112 µM (not active)
same,EC50,[2],13.8 µM (active)
